Values quoted from earlier work, collected in patent publication US4127534A, “Novel tripeptides, intermediates therefor and pharmaceutical compositions and methods employing said tripeptides” (priority 1977, dated 1978).

Assays:
[1] = test system: partially purified brain opiate receptor sites
[2] = injected directly into the brain of the rat

H-Tyr-Gly-Gly-Phe-Met-OH [methionine enkephalin]
binding to partially purified brain opiate receptor sites [1]: binds stereo-specifically
analgesic activity [2]: only weak analgesic agent of short duration
